Patent US6046231A, “Use of 4'-bromoflavone in a cancer chemopreventative composition and method” (The Board of Trustees of the University of Illinois, priority 1999, dated 2000)
Read-outs that look alike come from different tables or passages of the source.

Columns and labels:
[1] = tested on: Hepa 1c1c7 cells; assay: Hepa 1c1c7 cell viability (cytotoxicity); format: cell-based, murine; details: Mus musculus
[2] = tested on: quinone reductase (QR), Hepa 1c1c7 cells; assay: Quinone reductase (QR) induction in Hepa 1c1c7 cells; format: cell-based, murine; details: for CI, chemoprevention index (IC50/CD): 2880 min
Source text: This test was used because the specific activity of QR rises concomitantly with other phase II enzymes in many animal tissues in response to various chemopreventive agents. The study included natural and synthetic B-ring substituted flavones, as well as biosynthetic precursor chalcones and flavanones.
Determination of Quinone Reductase Activity in Cell Cultures. To determine the potency of inducers, Hepa 1c1c7 murine hepatoma cells as described in the Gerhauser publication were placed in 96-well plates at a density of 1×10^4 cells/ml in 200 μl of medium. After a preincubation period of 24 hr, the media were decanted and 190 μl fresh media were added to each well. Ten (10) μl test agents dissolved in 10% DMSO (final concentration of DMSO is 0.5%) with a serial 2-fold dilutions were introduced to each well, and the plates were incubated for an additional 48 hours. Specific QR activity was determined by measuring the NADPH-dependent menadiol-mediated reduction of 3-(4, 5-dimethylthiazo-2-yl)-2,5-diphenyltetrazolium bromide to blue formazan formed per mg protein per minute. Protein was determined in an identical set of test plates by staining with crystal violet. Hepa 1c1c7 cells retain many characteristics of normal issues, particularly the capacity for carcinogen activation and metabolism. They are amenable to precise control of environmental, nutritional, and hormonal factors. […] Induction of QR activity was calculated by comparing the QR specific activity of agent-treated cells with that of solvent-treated cells, and a plot of ratio was generated. CD represents the concentration required to double QR induction. Chemopreventive index (CI) is an indexing value generated by comparing CD with IC50 (concentration for 50% inhibition of cell viability) values.
Induction of Quinone Reductase in Hepa 1c1c7 Cells. […] Modification of the B-ring of chalcones, flavanones, and flavones was hypothesized to induce torsion of the B-ring, and, therefor, simulate out-of-plane distortions characteristic of polycyclic aromatic hydrocarbons, such as DMBA. Induction of QR activity was calculated by comparing the QR specific activity of agent-treated cells with the QR specific activity of solvent-treated cells, and a plot of ratios was generated. CD represents the concentration required for a double fold of induction. CI (Chemopreventive Index) is a value obtained by comparing CD with IC50 (concentration for 50% inhibition of cell viability in […]).

[3] = molecular target: T1, cytochrome P4501A1 (Rattus norvegicus, UniProt P00185); assay: biochemical
T1 sequence (P00185 1-524): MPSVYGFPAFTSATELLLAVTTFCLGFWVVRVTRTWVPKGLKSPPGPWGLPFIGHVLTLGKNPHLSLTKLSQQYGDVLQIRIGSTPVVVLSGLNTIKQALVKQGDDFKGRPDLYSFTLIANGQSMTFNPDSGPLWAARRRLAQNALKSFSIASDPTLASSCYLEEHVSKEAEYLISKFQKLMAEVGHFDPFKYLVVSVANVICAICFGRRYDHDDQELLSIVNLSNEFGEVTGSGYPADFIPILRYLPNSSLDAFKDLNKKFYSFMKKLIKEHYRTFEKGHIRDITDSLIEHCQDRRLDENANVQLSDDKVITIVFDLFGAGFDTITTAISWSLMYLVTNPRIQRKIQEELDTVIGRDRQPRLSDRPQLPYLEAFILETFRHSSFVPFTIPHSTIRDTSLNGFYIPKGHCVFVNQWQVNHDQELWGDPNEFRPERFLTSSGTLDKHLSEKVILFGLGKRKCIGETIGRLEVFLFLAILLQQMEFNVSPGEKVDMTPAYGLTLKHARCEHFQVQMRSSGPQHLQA
Protocol: Inhibition of DMBA-induced Cytochrome P4501A1 Activity. Female Sprague Dawley rats (43 days of age) were treated with DMBA (i.g.), and liver microsomes were isolated through differential centrifugation. Cytochrome P4501A1 activity was monitored by assessing EROD activity. Briefly, 200 μl of microsomal protein (2 mg/ml) were added to a reaction mixture containing 640 μl of 0.05 M Tris-HCl buffer (pH 7.5), 100 μl of BSA (10 mg/ml in Tris buffer), 20 μl of 0.25 M MgCl2, 40 μl of cofactor solution (0.3282 g of NADP and 1.417 g of glucose 6-phosphate in 40 ml of 1.15% KCl), 2.5 units of glucose 6-phosphate dehydrogenase, 10 μl of substrate (1 mg of ethoxyresorufin in 10 ml of methanol) and 10 μl of various concentrations of 4'-BF in DMSO (α-naphthoflavone as positive control; DMSO as negative control). After incubating at 37° C. for 4 min, the reactions were terminated by the addition of 2 ml of methanol. Samples were then centrifuged for 20 min at 2,000×g. and 200 μl of the supernatant fractions were transferred to 96-well plates and read on a spectrofluorimeter (500 nm excitation and 585 nm emission). Assays were conducted in triplicate and the percent of inhibition was calculated as: [1-(sample A-blank)/(DMSO A-blank)]×100.

[4] = Hepa-1c1c7, Hepa 1c1c7 cells, read-out: IC50, concentration for 50% inhibition of cell viability
[5] = Mus musculus, Hepa-1c1c7, 48 h, Hepa 1c1c7 cells, 48 h, read-out: CD, concentration to double the specific activity of QR
[6] = Hepa 1c1c7 cells, 48 h, read-out: CD, concentration to double the specific activity of QR
[7] = Hepa-1c1c7, read-out: IC50, concentration for 50% inhibition of cell viability
[8] = Mus musculus, Hepa-1c1c7, 48 h, read-out: CD, concentration to double the specific activity of QR, Hepa 1c1c7 cells, 48 h

## O=C1CC(c2cccc3ccccc23)Oc2ccccc21 (centres unmarked)
[1]; [4]
  IC50: 43 µM
[2]; Hepa 1c1c7 cells
  Cq: 8.6 µM
[2]
  CI, chemoprevention index (IC50/CD): 24
[2]; [5]
  EC (2-fold): 1.8 µM

## O=c1cc(-c2ccccc2F)oc2ccccc12 [2'-Fluoroflavone]
[1]; [4]
  IC50: > 83 µM
[2]; Hepa 1c1c7 cells
  Cq: 10 µM
[2]; [6]
  EC (2-fold): 0.80 µM
[2]
  CI, chemoprevention index (IC50/CD): 104
[2]; [5]
  EC (2-fold): 0.8 µM

## COc1cccc(OC)c1/C=C/C(=O)c1ccccc1O [2'-Hydroxy-2,6-dimethoxychalcone]
[1]; [4]
  IC50: 14 µM
[2]; Hepa 1c1c7 cells
  Cq: 3.7 µM
[2]; [6]
  EC (2-fold): 0.54 µM
[2]
  CI, chemoprevention index (IC50/CD): 26
[2]; [5]
  EC (2-fold): 0.53 µM

## COc1ccccc1/C=C/C(=O)c1ccccc1O [2'-Hydroxy-2-methoxychalcone]
[1]; [4]
  IC50: 17 µM
[2]; Hepa 1c1c7 cells
  Cq: 1.8 µM
[2]
  CI, chemoprevention index (IC50/CD): 55
[2]; [5]
  EC (2-fold): 0.31 µM

## Cc1ccccc1/C=C/C(=O)c1ccccc1O [2'-Hydroxy-2-methylchalcone]
[1]; [4]
  IC50: 36 µM
[2]; Hepa 1c1c7 cells
  Cq: 9.0 µM
[2]
  CI, chemoprevention index (IC50/CD): 54
[2]; [5]
  EC (2-fold): 0.67 µM

## O=C(/C=C/c1ccccc1[N+](=O)[O-])c1ccccc1O [2'-Hydroxy-2-nitrochalcone]
[1]; [4]
  IC50: 11 µM
[2]; Hepa 1c1c7 cells
  Cq: 3.6 µM
[2]
  CI, chemoprevention index (IC50/CD): 37
[2]; [5]
  EC (2-fold): 0.3 µM

## O=C(/C=C/c1cccc(C(F)(F)F)c1)c1ccccc1O [2'-Hydroxy-3-trifluoromethylchalcone]
[1]; [4]
  IC50: 12.8 µM
[2]; Hepa 1c1c7 cells
  Cq: 0.55 µM
[2]
  CI, chemoprevention index (IC50/CD): > 23
[2]; [5]
  EC (2-fold): < 0.55 µM

## O=C(/C=C/c1ccc(C(F)(F)F)cc1)c1ccccc1O [2'-Hydroxy-4-trifluoromethylchalcone]
[1]; [4]
  IC50: 55 µM
[2]; Hepa 1c1c7 cells
  Cq: 1 µM
[2]
  CI, chemoprevention index (IC50/CD): > 100
[2]; [5]
  EC (2-fold): < 0.55 µM

## COc1ccccc1C1CC(=O)c2ccccc2O1 (centres unmarked) [2'-Methoxyflavanone]
[1]; [4]
  IC50: > 79 µM
[2]; Hepa 1c1c7 cells
  Cq: 6.9 µM
[2]
  CI, chemoprevention index (IC50/CD): > 125
[2]; [5]
  EC (2-fold): 0.63 µM

## Cc1ccccc1C1CC(=O)c2ccccc2O1 (centres unmarked) [2'-Methylflavanone]
[1]; [4]
  IC50: 81 µM
[2]; Hepa 1c1c7 cells
  Cq: 6.8 µM
[2]; [6]
  EC (2-fold): 1.00 µM
[2]
  CI, chemoprevention index (IC50/CD): 81
[2]; [5]
  EC (2-fold): 1 µM

## COc1ccccc1-c1cc(=O)c2ccccc2o1 [2'-methoxyflavone]
[2]; [5]
  EC (2-fold): 0.01 to 1 µM

## O=C(/C=C/c1ccccc1Br)c1ccccc1O [2-Bromo-2'-hydroxychalcone]
[1]; [7]
  IC50: 11 µM
[2]; Hepa 1c1c7 cells
  Cq: 2.0 µM
[2]
  CI, chemoprevention index (IC50/CD): 21
[2]; [8]
  EC (2-fold): 0.53 µM

## O=c1cc(-c2cccc(Br)c2)oc2ccccc12 [3'-Bromoflavone]
[1]; [4]
  IC50: 3.2 µM
[2]; Hepa 1c1c7 cells
  Cq: 4.4 µM
[2]
  CI, chemoprevention index (IC50/CD): 32
[2]; [5]
  EC (2-fold): 0.1 µM

## O=c1cc(-c2cccc(Cl)c2)oc2ccccc12 [3'-Chloroflavone]
[1]; [7]
  IC50: 23 µM
[2]; Hepa 1c1c7 cells
  Cq: toxic
[2]; Hepa 1c1c7 cells, 48 h, listed as 3'-chloroflavone, read-out: CD, concentration to double the specific activity of QR
  EC (2-fold): 0.27 µM
[2]; [6]
  EC (2-fold): < 0.58 µM
[2]
  CI, chemoprevention index (IC50/CD): > 40

## O=c1cc(-c2cccc(F)c2)oc2ccccc12 [3'-Fluoroflavone]
[1]; [4]
  IC50: 42 µM
[2]; Hepa 1c1c7 cells
  Cq: 1.24 µM
[2]
  CI, chemoprevention index (IC50/CD): 63
[2]; [5]
  EC (2-fold): 0.67 µM

## O=C(/C=C/c1cccc(Br)c1)c1ccccc1O [3-Bromo-2'-hydroxychalcone]
[1]; [4]
  IC50: 21 µM
[2]; Hepa 1c1c7 cells
  Cq: 8.2 µM
[2]
  CI, chemoprevention index (IC50/CD): 16
[2]; [5]
  EC (2-fold): 1.3 µM

## O=C1CC(c2ccc(Br)cc2)Oc2ccccc21 (centres unmarked) [4'-Bromoflavanone]
[1]; [4]
  IC50: 63 µM
[2]; Hepa 1c1c7 cells
  Cq: 11 µM
[2]
  CI, chemoprevention index (IC50/CD): 27
[2]; [5]
  EC (2-fold): 2.3 µM

## O=c1cc(-c2ccc(Cl)cc2)oc2ccccc12 [4'-Chloroflavone]
[1]; [7]
  IC50: > 78 µM
[2]; Hepa 1c1c7 cells
  Cq: 0.66 µM
[2]; [6]
  EC (2-fold): 0.02 µM
[2]
  CI, chemoprevention index (IC50/CD): > 5000
[2]; [8]
  EC (2-fold): 0.016 µM

## O=c1cc(-c2ccc(F)cc2)oc2ccccc12 [4'-Fluoroflavone]
[1]; [4]
  IC50: > 83 µM
[2]; Hepa 1c1c7 cells
  Cq: 32 µM
[2]
  CI, chemoprevention index (IC50/CD): > 24
[2]; [5]
  EC (2-fold): 3.4 µM

## O=c1cc(-c2ccc(C(F)(F)F)cc2)oc2ccccc12 [4'-Trifluoromethylflavone]
[1]; [4]
  IC50: 90 µM
[2]; Hepa 1c1c7 cells
  Cq: 0.1 µM
[2]
  CI, chemoprevention index (IC50/CD): 3000
[2]; [5]
  EC (2-fold): 0.03 µM

## O=C(/C=C/c1ccc(Br)cc1)c1ccccc1O [4-Bromo-2'-hydroxychalcone]
[1]; [7]
  IC50: 66 µM
[2]; Hepa 1c1c7 cells
  Cq: 66 µM
[2]
  CI, chemoprevention index (IC50/CD): 4
[2]; [8]
  EC (2-fold): 18 µM

## O=C(/C=C/c1ccccc1)c1ccccc1 [Chalcone, reference compound]
[1]; [4]
  IC50: 33 µM

## O=c1cc(-c2ccccc2)oc2ccccc12 [Flavone]
[1]; [4]
  IC50: 106 µM
[2]; Hepa 1c1c7 cells
  Cq: 8.3 µM
[2]
  CI, chemoprevention index (IC50/CD): 42
[2]; [5]
  EC (2-fold): 2.5 µM

## O=c1cc(-c2ccccc2)oc2c1ccc1ccccc12 [a-naphthoflavone, α-naphthoflavone, reference compound]
[3]
  IC50: 0.09 µM
